Measurements taken from PubChem BioAssay AID2060908 (Molecular Pharmacology Branch, DTP, NCI, 2025).

Test system: 186277-243-T-J2-PDC complex spheroids, viability
Assay: Anticancer human tumor 186277-243-T-J2-PDC patient-derived colon adenocarcinoma cell line growth inhibition [RAS]
Settings: for IC50: curve of first compound; for viability, T/C: stronger effect = lower value; active = viability on the fitted dose curve at most 10% of control; inactive = the rest
Procedure, shortened: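 Tumour cells grown as complex spheroids with HUVEC endothelial cells and mesenchymal stem cells, treated with RAS pathway inhibitor combinations. Each agent spans half-log steps from near clinical Cmax, or 10 microM where Cmax is unknown.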

[1] = second compound 0.000949 µM, first compound 0.0316 µM
[2] = second compound 0.000949 µM, first compound 0.1 µM
[3] = second compound 0.000949 µM, first compound 0.316 µM
[4] = second compound 0.000949 µM, first compound 1 µM
[5] = second compound 0.000949 µM, first compound 3.16 µM
[6] = second compound 0.000949 µM, first compound 10 µM
[7] = second compound 0.003 µM, first compound 0.0316 µM
[8] = second compound 0.003 µM, first compound 0.1 µM
[9] = second compound 0.003 µM, first compound 0.316 µM
[10] = second compound 0.003 µM, first compound 1 µM
[11] = second compound 0.003 µM, first compound 3.16 µM
[12] = second compound 0.003 µM, first compound 10 µM
[13] = second compound 0.00949 µM, first compound 0.0316 µM
[14] = second compound 0.00949 µM, first compound 0.1 µM
[15] = second compound 0.00949 µM, first compound 0.316 µM
[16] = second compound 0.00949 µM, first compound 1 µM
[17] = second compound 0.00949 µM, first compound 3.16 µM
[18] = second compound 0.00949 µM, first compound 10 µM
[19] = second compound 0.03 µM, first compound 0.0316 µM
[20] = second compound 0.03 µM, first compound 0.1 µM
[21] = second compound 0.03 µM, first compound 0.316 µM
[22] = second compound 0.03 µM, first compound 1 µM
[23] = second compound 0.03 µM, first compound 3.16 µM
[24] = second compound 0.03 µM, first compound 10 µM
[25] = second compound 0.0949 µM, first compound 0.0316 µM
[26] = second compound 0.0949 µM, first compound 0.1 µM
[27] = second compound 0.0949 µM, first compound 0.316 µM
[28] = second compound 0.0949 µM, first compound 1 µM
[29] = second compound 0.0949 µM, first compound 3.16 µM
[30] = second compound 0.0949 µM, first compound 10 µM
[31] = second compound 0.3 µM, first compound 0.0316 µM
[32] = second compound 0.3 µM, first compound 0.1 µM
[33] = second compound 0.3 µM, first compound 0.316 µM
[34] = second compound 0.3 µM, first compound 1 µM
[35] = second compound 0.3 µM, first compound 3.16 µM
[36] = second compound 0.3 µM, first compound 10 µM
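Note: spheroids exposed to compounds for 7 days before viability read.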

CC1(C)CCC(Nc2ncc(C(F)(F)F)c(-c3c[nH]c4c(P(C)(C)=O)c(C#N)ccc34)n2)CN1 (stereo unspecified) + CCn1c(-c2cccnc2C(C)OC)c2c3cc(ccc31)N1CCOC(CC(NC(=O)C(C(C)C)N(C)C(=O)C3(F)CCN(C(=O)C#CC(C)(C)N(C)C)CC3)C(=O)N3CCCC(N3)C(=O)OCC(C)(C)C2)C1
inactive: viability, T/C (second compound 0.000949 µM, first compound 0.000949 µM) 79.3% | viability, T/C (second compound 0.000949 µM, first compound 0.003 µM) 84.8% | viability, T/C (second compound 0.000949 µM, first compound 0.00949 µM) 112% | viability, T/C (second compound 0.000949 µM, first compound 0.03 µM) 81.5% | viability, T/C (second compound 0.000949 µM, first compound 0.0949 µM) 57.9% | viability, T/C (second compound 0.000949 µM, first compound 0.3 µM) 51.6% | viability, T/C (second compound 0.003 µM, first compound 0.000949 µM) 100% | viability, T/C (second compound 0.003 µM, first compound 0.003 µM) 90.2% | viability, T/C (second compound 0.003 µM, first compound 0.00949 µM) 103% | viability, T/C (second compound 0.003 µM, first compound 0.03 µM) 83.5% | viability, T/C (second compound 0.003 µM, first compound 0.0949 µM) 58.6% | viability, T/C (second compound 0.003 µM, first compound 0.3 µM) 47.4% | viability, T/C (second compound 0.00949 µM, first compound 0.000949 µM) 104% | viability, T/C (second compound 0.00949 µM, first compound 0.003 µM) 104% | viability, T/C (second compound 0.00949 µM, first compound 0.00949 µM) 103% | viability, T/C (second compound 0.00949 µM, first compound 0.03 µM) 85.6% | viability, T/C (second compound 0.00949 µM, first compound 0.0949 µM) 56.3% | viability, T/C (second compound 0.00949 µM, first compound 0.3 µM) 50.5% | viability, T/C (second compound 0.03 µM, first compound 0.000949 µM) 92% | viability, T/C (second compound 0.03 µM, first compound 0.003 µM) 98.6% | viability, T/C (second compound 0.03 µM, first compound 0.00949 µM) 108% | viability, T/C (second compound 0.03 µM, first compound 0.03 µM) 85.1% | viability, T/C (second compound 0.03 µM, first compound 0.0949 µM) 57.9% | viability, T/C (second compound 0.03 µM, first compound 0.3 µM) 49.7% | viability, T/C (second compound 0.0949 µM, first compound 0.000949 µM) 107% | viability, T/C (second compound 0.0949 µM, first compound 0.003 µM) 103% | viability, T/C (second compound 0.0949 µM, first compound 0.00949 µM) 91.9% | viability, T/C (second compound 0.0949 µM, first compound 0.03 µM) 71.1% | viability, T/C (second compound 0.0949 µM, first compound 0.0949 µM) 53.3% | viability, T/C (second compound 0.0949 µM, first compound 0.3 µM) 43.3% | viability, T/C (second compound 0.3 µM, first compound 0.000949 µM) 102% | viability, T/C (second compound 0.3 µM, first compound 0.003 µM) 96.3% | viability, T/C (second compound 0.3 µM, first compound 0.00949 µM) 87.8% | viability, T/C (second compound 0.3 µM, first compound 0.03 µM) 51.9% | viability, T/C (second compound 0.3 µM, first compound 0.0949 µM) 36.8% | viability, T/C (second compound 0.3 µM, first compound 0.3 µM) 30.8%
236 nM: IC50 (second compound 0.003 µM)
135 nM: IC50 (second compound 0.0949 µM)
> 300 nM: IC50 (second compound 0.000949 µM) | IC50 (second compound 0.00949 µM) | IC50 (second compound 0.03 µM)
36.1 nM: IC50 (second compound 0.3 µM)

CC(C)NCC(C(=O)N1CCN(c2ncnc3c2C(C)CC3O)CC1)c1ccc(Cl)cc1 (stereo unspecified) + CCn1c(-c2cccnc2C(C)OC)c2c3cc(ccc31)N1CCOC(CC(NC(=O)C(C(C)C)N(C)C(=O)C3(F)CCN(C(=O)C#CC(C)(C)N(C)C)CC3)C(=O)N3CCCC(N3)C(=O)OCC(C)(C)C2)C1
1380 nM: IC50 (second compound 0.03 µM)
inactive: viability, T/C [1] 88.1% | viability, T/C [2] 96.7% | viability, T/C [3] 108% | viability, T/C [4] 69% | viability, T/C [5] 40.5% | viability, T/C [6] 29.4% | viability, T/C [7] 83.4% | viability, T/C [8] 83.4% | viability, T/C [9] 88.2% | viability, T/C [10] 62.8% | viability, T/C [11] 39.9% | viability, T/C [12] 29.4% | viability, T/C [13] 90.2% | viability, T/C [14] 82.8% | viability, T/C [15] 89.2% | viability, T/C [16] 67% | viability, T/C [17] 43.9% | viability, T/C [18] 28% | viability, T/C [19] 104% | viability, T/C [20] 95.8% | viability, T/C [21] 108% | viability, T/C [22] 57.3% | viability, T/C [23] 36.6% | viability, T/C [24] 25.3% | viability, T/C [25] 99% | viability, T/C [26] 106% | viability, T/C [27] 72% | viability, T/C [28] 40.6% | viability, T/C [29] 34.7% | viability, T/C [30] 18.7% | viability, T/C [31] 99.2% | viability, T/C [32] 83.3% | viability, T/C [33] 51.8% | viability, T/C [34] 27.9% | viability, T/C [35] 20.4% | viability, T/C [36] 15.8%
1900 nM: IC50 (second compound 0.000949 µM)
726 nM: IC50 (second compound 0.0949 µM)
349 nM: IC50 (second compound 0.3 µM)
1870 nM: IC50 (second compound 0.003 µM)
2290 nM: IC50 (second compound 0.00949 µM)

CC(=O)OC12COC1CC(O)C1(C)C(=O)C(O)C3=C(C)C(OC(=O)C(O)C(NC(=O)OC(C)(C)C)c4ccccc4)CC(O)(C(OC(=O)c4ccccc4)C21)C3(C)C (stereo unspecified) + CCn1c(-c2cc(N3CCN(C)CC3)cnc2C(C)OC)c2c3cc(ccc31)-c1csc(n1)CC(NC(=O)C1CC1C)C(=O)N1CCCC(N1)C(=O)OCC(C)(C)C2
< 31.6 nM: IC50 (second compound 0.000949 µM) | IC50 (second compound 0.003 µM) | IC50 (second compound 0.00949 µM) | IC50 (second compound 0.03 µM) | IC50 (second compound 0.0949 µM) | IC50 (second compound 0.3 µM)
active: viability, T/C [1] 3.93% | viability, T/C [2] 3.88% | viability, T/C [3] 3.15% | viability, T/C [4] 3.35% | viability, T/C [5] 3.1% | viability, T/C [6] 2.87% | viability, T/C [7] 4.18% | viability, T/C [8] 3.41% | viability, T/C [9] 3.5% | viability, T/C [10] 3.44% | viability, T/C [11] 3.13% | viability, T/C [12] 3.15% | viability, T/C [13] 4.39% | viability, T/C [14] 3.52% | viability, T/C [15] 3.8% | viability, T/C [16] 3.26% | viability, T/C [17] 3.42% | viability, T/C [18] 3.14% | viability, T/C [19] 3.02% | viability, T/C [20] 3.1% | viability, T/C [21] 2.91% | viability, T/C [22] 3.18% | viability, T/C [23] 2.79% | viability, T/C [24] 2.64% | viability, T/C [25] 2.92% | viability, T/C [26] 2.71% | viability, T/C [27] 3.02% | viability, T/C [28] 2.38% | viability, T/C [29] 2.59% | viability, T/C [30] 2.18% | viability, T/C [31] 2.53% | viability, T/C [32] 2.47% | viability, T/C [33] 2.58% | viability, T/C [34] 2.35% | viability, T/C [35] 2.5% | viability, T/C [36] 2.28%
